Reference: patent publication US6465433B1, “Boronic ester and acid compounds, synthesis and uses” (Millennium Pharmaceuticals, Inc., priority 1994, dated 2002)
Where a SMILES comes first, the peptide text is derived from it. The star is where a group is joined. Cbz = O=C(OCc1ccccc1)*

Assays:
Cathepsin B = Cathepsin B (Homo sapiens, UniProt P07858); test: Kinetic assay: inhibition of Cathepsin B; type: biochemical; details: Table IV
Source text: [Worded in the source for another target; this target is reported under the same test.] (§1) Table II summarizes results from kinetic experiments that measured the inhibition of the 20S proteasome by compounds having the formula of compound (1) or (2). P, AA^1, AA^2, AA^3, and Z^1 and Z^2 represent the structures present on formula (1) or (2). The protocol for the kinetic assay described in Tables II-V is as described in Rock et al., Cell 78:761-771 (1994). In these tables, Ki values are reported, which are dissociation constants for the equilibrium that is established when enzyme and inhibitor interact to form the enzyme:inhibitor complex. The reactions were performed using SDS-activated 20S proteasome from rabbit muscle. The substrate used was Suc-LLVY-AMC.

C2C12 cells = test: Inhibition of protein degradation in C2C12 cells; type: cell-based, mouse; details: Mus musculus, C2C12; 35S-methionine labelled cells; percent decrease in TCA soluble radioactivity; media with 50% serum
Description: One approach to testing drug candidates for their ability to inhibit the ATP-ubiquitin-dependent degradative process is to measure proteolysis in cultured cells (Rock, et al., Cell 78:761 (1994)). For example, the degradation of long-lived intracellular proteins can be measured in mouse C2C12 myoblast cells. Cells are incubated with ^35S-methionine for 48 hours to label long-lived proteins and then chased for 2 hours with medium containing unlabeled methionine. After the chase period, the cells are incubated for 4 hours in the presence or absence of the test compound. The amount of protein degradation in the cell can be measured by quantitating the trichloroacetic acid soluble radioactivity released from the pre-labeled proteins into the growth medium (an indicator of intracellular proteolysis).
C2C12 cells (a mouse myoblast line) were labelled for 48 hrs with ^35S-methionine. The cells were then washed and preincubated for 2 hrs in the same media supplemented with 2 mM unlabelled methionine. The media was removed and replaced with a fresh aliquot of the preincubation media containing 50% serum, and a concentration of the compound to be tested. The media was then removed and made up to 10% TCA and centrifuged. The TCA soluble radioactivity was counted. Inhibition of proteolysis was calculated as the percent decrease in TCA soluble radioactivity.

[1] = target: SDS-activated 20S proteasome from rabbit muscle (Oryctolagus cuniculus, UniProt G1SU71+G1T4Q9); test: Kinetic assay: inhibition of the 20S proteasome; type: biochemical
Description: as §1, with “P,” for “Table II summarizes results from kinetic experiments that measured the inhibition of the 20S proteasome by compounds having the formula of compound (1) or (2). P,”

Cathepsin G = target: T1, Cathepsin G (Homo sapiens, UniProt P08311); test: Kinetic assay: inhibition of Cathepsin G; type: biochemical; details: Table V
T1 sequence (P08311 21-244): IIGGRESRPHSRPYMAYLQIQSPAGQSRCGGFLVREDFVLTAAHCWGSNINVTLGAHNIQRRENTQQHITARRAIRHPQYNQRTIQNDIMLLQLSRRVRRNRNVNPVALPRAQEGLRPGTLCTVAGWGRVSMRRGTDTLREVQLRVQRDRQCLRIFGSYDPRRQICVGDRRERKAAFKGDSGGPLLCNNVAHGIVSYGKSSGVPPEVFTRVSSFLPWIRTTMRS

mice = test: DTH response (contact sensitivity, ear swelling) in mice; type: in vivo, mouse; details: oral, ear swelling approximately 18 hours after challenge
Source text: Compounds can also be tested for their ability to inhibit a delayed-type hypersensitivity response in mice. Contact hypersensitivity is a manifestation of an in vivo T-cell mediated immune response (Friedmann, Curr. Opinion Immunology, 1:690693 (1989)). Although the exact molecular mechanisms that regulate the cellular interactions and vascular changes involved in the response remain obscure, it is clear that the process is dependent upon the interplay of soluble mediators, adhesion molecules, and the cytokine network (Piguet, et al., J. Exp. Med. 173:673-679 (1991); Nickoloff, et al. J. Invest. Dermatol. 94:151S-157S (1990)). NF-κB, by mediating events such as the production of cytokines and the induction and utilization of cell-surface adhesion molecules, is a central and coordinating regulator involved in immune responses.
Naive nice were sensitized by the application of 20 μL of a 0.5% (v/v) solution of 2,4-dinitrofluorobenzene in 4:1 acetone/olive oil to both of the rear limb footpads. This procedure is performed on two consecutive days, which are referred to as days 0 and 1.
The efferent phase of the contact sensitivity response was elicited on day 5 by the application of 10 μL of a 0.2% (v/v) solution of 2,4-dinitrofluorobenzene in 4:1 acetone/olive oil to both sides of the left ear. The contralateral control ear was treated on both sides with 10 μL of vehicle only. The mice were lightly anaesthetized for this procedure by the intraperitoneal (i.p.) injection of a mixture of ketamine.(80 mg/kg, Henry Schein) and xylazine (16 mg/kg, Henry Schein). […]
Approximately 18 hours after the challenge, ear swelling was determined by measuring both the control and the experimental ear using a Mitutoyo Digital micrometer. The absolute difference in thickness of the experimental (left) ears vs. the control (right) ears was determined for each treatment group. Efficacy was determined by comparing this difference in thickness to the difference calculated for the vehicle control group.

Human Leukocyte Elastase = target: T2, Human Leukocyte Elastase (Homo sapiens, UniProt P08246); test: Kinetic assay: inhibition of Human Leukocyte Elastase; type: biochemical; details: Table V
T2 sequence (P08246 30-267): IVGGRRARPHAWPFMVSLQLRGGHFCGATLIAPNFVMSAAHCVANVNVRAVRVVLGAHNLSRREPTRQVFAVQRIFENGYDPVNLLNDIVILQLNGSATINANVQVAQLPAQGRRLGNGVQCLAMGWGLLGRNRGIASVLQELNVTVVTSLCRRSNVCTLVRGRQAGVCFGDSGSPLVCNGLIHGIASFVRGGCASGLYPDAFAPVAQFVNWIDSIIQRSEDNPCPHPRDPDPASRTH

[2] = target: Human Pancreatic Chymotrypsin; test: Kinetic assay: inhibition of Human Pancreatic Chymotrypsin; type: biochemical; details: Table V
NF-κB = test: Activation of NF-κB, electrophoretic mobility shift assay in TNF-α stimulated MG63 osteosarcoma cells; type: cell-based; details: pretreatment for 1 hour, PRDII probe, FIG. 2
Description: Compounds can be tested for their ability to inhibit the activation of NF-κB by means of a DNA binding assay (Palombella, et al., Cell 78:773 (1994)). Whole-cell extracts are prepared from untreated or TNF-α treated cells that have been pretreated for 1 hour with the test compound. The DNA binding activity of NF-κB is measured by an electrophoretic mobility shift assay using the PRDII probe from the human IFN-β gene promoter.
This assay was performed as previously described (Palombella, et al. Cell, 78:773-785 (1994)). MG63 osteosarcoma cells were stimulated by treatment with TNF-α for the designated times. Whole cell extracts were prepared and analyzed by electrophoretic mobility shift assay using the PRDII probe from the human IFN-β gene promoter.

[3] = Table II, SDS-activated 20S proteasome from rabbit muscle, substrate Suc-LLVY-AMC

CC(C)C[C@H](NC(=O)[C@H](Cc1ccccc1)NC(=O)N1CCOCC1)B(O)O [MG-309, N-(4-morpholine)carbonyl-L-phenylalanine-L-leucine boronic acid]
Ki (Cathepsin B): 132 µM
IC50 (C2C12 cells): 210 nM
Ki [1, 3]: 0.82 nM
Ki ([1]; Table IV): 0.82 nM
Ki ([1]; Table V): 0.82 nM
Ki (Cathepsin G): 4.8 µM
% Inhibition of the DTH response (mice; dose 3 mg/kg): 40%
Ki (Human Leukocyte Elastase): 7000 nM

CC(C)C[C@H](NC(=O)[C@H](Cc1cccc2ccccc12)NC(=O)OCc1ccccc1)B1O[C@@H]2C[C@@H]3C[C@@H](C3(C)C)[C@]2(C)O1 [MG-267]
Ki [2]: 2300 nM
Ki [1, 3]: 0.1 nM
Ki ([1]; Table V): 0.1 nM
Ki (Cathepsin G): 33 µM
Ki (Human Leukocyte Elastase): 150 nM

CSCCC(C=O)NC(=O)C(CC(C)C)NC(=O)C(CC(C)C)NC(C)=O [MG-102, Ac-L-Leu-L-Leu-L-Met-H, reference compound] (Ac-Leu-Leu-Met-aldehyde; configuration not given here)
activity against the 20S proteasome [1]: inactive
NF-κB binding activity (NF-κB): did not inhibit

CC(C)C[C@@H](C=O)NC(=O)[C@H](CC(C)C)NC(=O)[C@H](CC(C)C)NC(=O)OCc1ccccc1 [MG-132, Cbz-L-Leu-L-Leu-L-Leu-H] (Cbz-Leu-Leu-Leu-aldehyde)
NF-κB binding activity (NF-κB): inhibited

CC(C)C[C@H](NC(=O)[C@H](CC(C)C)NC(=O)[C@H](CC(C)C)NC(=O)OCc1ccccc1)B(O)O [MG-262]
Ki (Cathepsin B): 6.1 µM
Ki [2]: 7 nM
IC50 (C2C12 cells): 280 nM
Ki [1, 3]: 0.035 nM
Ki ([1]; Table IV): 0.035 nM
Ki ([1]; Table V): 0.03 nM
Ki (Cathepsin G): 0.055 µM
Ki (Human Leukocyte Elastase): 15 nM

CC(C)C[C@H](NC(=O)[C@H](Cc1ccccc1)NC(=O)c1cnccn1)B(O)O [MG-341, N-(2-pyrazine)carbonyl-L-phenylalanine-L-leucine boronic acid]
Ki (Cathepsin B): 160 µM
IC50 (C2C12 cells): 69 nM
% Inhibition of the DTH response (mice; dose 3 mg/kg): 90%

CC(C)C[C@H](NC(=O)[C@H](Cc1cccc2ccccc12)NS(=O)(=O)c1cccc2cccnc12)B(O)O [MG-296, N-(8-quinoline)sulfonyl-β-(1-naphthyl)-L-alanine-L-leucine boronic acid]
Ki (Cathepsin B): 4 µM
IC50 (C2C12 cells): 738 nM
Ki [1, 3]: 1.7 nM
Ki ([1]; Table IV): 1.7 nM
Ki ([1]; Table V): 1.7 nM
Ki (Cathepsin G): 9.2 µM
% Inhibition of the DTH response (mice; dose 50 mg/kg): 60%
Ki (Human Leukocyte Elastase): 36 nM
